# Test results taken from publication PMC4931022, “Arginine demethylation is catalysed by a subset of JmjC histone lysine demethylases” (Nature Communications, 2016).
# Experiments:
# Format in all cases: biochemical
# KDM6B [1] = biological target: T1, KDM6B (Homo sapiens, UniProt O15054); assay: MALDI MS activity assay, recombinant KDM6B catalytic domain; details: KDM6B 2 μM, peptide 10 μM, 1 h, 37 °C, 2OG 100 μM, ascorbate 100 μM, Fe(II) 10 μM, 50 mM HEPES pH 7.5, 150 mM NaCl; MALDI-TOF MS, −14 Da shift
# T1 construct: His6 (N); made in house; host or cells: Escherichia coli
# Protocol: (§1) MALDI MS activity assays. Recombinant proteins (2 μM) were incubated with peptides (10 μM, sequences are given in Supplementary Table 1) and cofactors/substrates for 1 h at 37 °C, unless otherwise specified. Reactions were quenched with 1:1 (v/v) methanol and analysed with MALDI MS. Assay conditions for each enzyme are given in Supplementary Table 2. Negative controls without enzyme were included.
# (§2) Supplementary Table 2 Assay conditions with truncated recombinant protein.
# (§3) Supplementary Table 3 Assay conditions with full length Flag-tagged KDMs.
# KDM3A = biological target: T2, KDM3A (Homo sapiens, UniProt Q9Y4C1); assay: MALDI MS activity assay, recombinant KDM3A catalytic domain; details: KDM3A 2 μM, peptide 10 μM, 1 h, 37 °C, 2OG 100 μM, ascorbate 100 μM, Fe(II) 50 μM, 50 mM HEPES pH 7.5; MALDI-TOF MS, −14 Da shift
# T2 construct: KDM3A515–1,317; His6 (N); made in house; host or cells: Sf9 cells
# T2 sequence (Q9Y4C1 515-1317 limits assumed): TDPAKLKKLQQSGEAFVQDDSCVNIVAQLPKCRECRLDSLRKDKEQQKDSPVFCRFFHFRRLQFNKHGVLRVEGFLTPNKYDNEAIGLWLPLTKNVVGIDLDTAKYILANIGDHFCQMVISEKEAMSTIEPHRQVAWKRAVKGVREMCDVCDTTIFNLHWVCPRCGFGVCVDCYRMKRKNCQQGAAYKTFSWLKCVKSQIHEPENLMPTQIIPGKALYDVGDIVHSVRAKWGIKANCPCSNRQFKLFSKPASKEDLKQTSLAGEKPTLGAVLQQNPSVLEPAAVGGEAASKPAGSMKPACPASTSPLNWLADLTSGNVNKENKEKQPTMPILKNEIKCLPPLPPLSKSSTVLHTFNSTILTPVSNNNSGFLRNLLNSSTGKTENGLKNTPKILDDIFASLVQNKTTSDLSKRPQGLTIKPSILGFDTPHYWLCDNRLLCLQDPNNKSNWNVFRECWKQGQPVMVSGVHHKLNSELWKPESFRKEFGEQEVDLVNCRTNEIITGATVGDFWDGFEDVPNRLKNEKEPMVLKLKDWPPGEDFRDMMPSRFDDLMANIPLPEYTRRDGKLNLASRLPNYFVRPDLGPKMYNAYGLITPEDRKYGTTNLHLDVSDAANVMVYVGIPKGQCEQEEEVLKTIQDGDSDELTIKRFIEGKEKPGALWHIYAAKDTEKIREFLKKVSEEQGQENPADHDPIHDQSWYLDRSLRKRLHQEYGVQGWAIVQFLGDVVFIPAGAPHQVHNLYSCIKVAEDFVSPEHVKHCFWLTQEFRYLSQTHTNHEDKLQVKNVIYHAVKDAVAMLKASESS
# Protocol: as §1, §2, §3
# KDM5C [2] = biological target: T3, KDM5C (Homo sapiens, UniProt P41229); assay: Formaldehyde dehydrogenase-coupled demethylation assay, KDM5C
# T3 construct: KDM5C1–765 was produced as an N-terminally His6-tagged protein in Sf9 cells; His6 (N); made in house; host or cells: Sf9 cells (provided by the Structural Genomics Consortium)
# T3 sequence (P41229 1-765): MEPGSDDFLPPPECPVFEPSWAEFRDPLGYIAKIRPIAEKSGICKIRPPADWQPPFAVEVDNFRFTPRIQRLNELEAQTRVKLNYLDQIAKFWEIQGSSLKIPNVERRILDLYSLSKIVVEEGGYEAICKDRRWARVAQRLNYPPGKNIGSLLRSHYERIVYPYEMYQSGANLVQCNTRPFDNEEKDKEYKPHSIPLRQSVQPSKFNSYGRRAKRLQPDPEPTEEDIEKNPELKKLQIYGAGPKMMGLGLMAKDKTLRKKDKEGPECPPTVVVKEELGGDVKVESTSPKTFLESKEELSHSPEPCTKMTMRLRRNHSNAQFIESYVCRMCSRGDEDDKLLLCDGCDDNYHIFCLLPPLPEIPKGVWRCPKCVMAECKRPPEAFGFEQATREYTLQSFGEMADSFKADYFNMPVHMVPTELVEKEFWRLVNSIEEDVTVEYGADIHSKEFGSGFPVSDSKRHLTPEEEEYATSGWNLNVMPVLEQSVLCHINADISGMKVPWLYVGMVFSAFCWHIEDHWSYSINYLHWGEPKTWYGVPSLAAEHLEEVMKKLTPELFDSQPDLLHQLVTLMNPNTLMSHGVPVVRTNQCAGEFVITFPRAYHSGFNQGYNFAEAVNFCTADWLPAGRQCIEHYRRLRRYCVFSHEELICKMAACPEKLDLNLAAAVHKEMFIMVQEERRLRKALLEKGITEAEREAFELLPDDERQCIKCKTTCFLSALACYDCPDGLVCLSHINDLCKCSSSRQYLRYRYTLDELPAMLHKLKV
# Protocol: (§4) Formaldehyde dehydrogenase-coupled assays. Preliminary kinetic parameters were determined by detection of the formaldehyde by-product of the demethylation reaction using a FDH (formaldehyde dehydrogenase-coupled)/NAD^+-coupled assay as previously described. Assays were carried out in buffer (enzyme-dependent) with the addition of Fe(II) ammonium sulfate (10 μM), sodium ascorbate (100 μM), 2OG (200 μM), NAD^+ (500 μM), enzyme (0.2–4 μM) and FDH enzyme (0.025 U per assay, Sigma-Aldrich; total volume 30 μl) and were conducted at 37 °C in clear-bottom black 384-well plates. […] The Km and Vmax values were calculated from the reaction rate during the linear phase of formaldehyde production, as determined by the slope of the fluorescence signal recorded.
# KDM4E [3] = biological target: T4, KDM4E (Homo sapiens, UniProt B2RXH2); assay: MALDI MS activity assay, recombinant KDM4E catalytic domain; details: peptide 10 μM, 1 h, 37 °C, MALDI-TOF MS; for observed arginine demethylation activity: KDM4E 2 μM, 2OG 200 μM, ascorbate 100 μM, Fe(II) 10 μM, 50 mM HEPES pH 7.5, −14 Da shift
# T4 construct: His6 (N); made in house; host or cells: Escherichia coli
# T4 sequence (B2RXH2 1-337): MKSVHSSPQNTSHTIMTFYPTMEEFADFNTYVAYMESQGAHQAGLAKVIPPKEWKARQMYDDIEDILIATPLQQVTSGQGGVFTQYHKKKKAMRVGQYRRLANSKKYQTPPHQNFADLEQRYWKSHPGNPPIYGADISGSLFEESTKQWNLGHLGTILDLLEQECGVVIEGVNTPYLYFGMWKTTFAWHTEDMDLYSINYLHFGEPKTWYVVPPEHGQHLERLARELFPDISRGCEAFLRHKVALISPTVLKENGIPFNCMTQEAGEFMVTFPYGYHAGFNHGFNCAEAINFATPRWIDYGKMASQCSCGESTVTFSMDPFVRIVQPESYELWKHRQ
# Protocol: as §1
# (§5) Supplementary Table 2 Assay conditions with truncated recombinant protein. […]
# KDM5C [4] = biological target: T3, KDM5C; assay: MALDI MS activity assay, recombinant KDM5C catalytic domain; details: peptide 10 μM, 1 h, 37 °C, MALDI-TOF MS; for observed arginine demethylation activity: KDM5C 2 μM, 2OG 100 μM, ascorbate 100 μM, Fe(II) 10 μM, 50 mM HEPES pH 7.5, −14 Da shift
# Protocol: as §1, §5
# KDM4E [5] = biological target: T4, KDM4E; assay: Formaldehyde dehydrogenase-coupled demethylation assay, KDM4E; details: for kcat/KM: KDM4E; for kcat / Km: KDM4E catalytic domain, apparent, preliminary, 37 °C, mean±s.e.m., n=3; for kcat: FDH/NAD+-coupled assay; for Km: FDH/NAD+-coupled formaldehyde assay, 2OG 200 μM, Fe(II) 10 μM, ascorbate 100 μM
# Protocol: as §4
# KDM6B [6] = biological target: T1, KDM6B; assay: Formaldehyde dehydrogenase-coupled demethylation assay, KDM6B
# Protocol: as §4
# [7] = calculated from the average kcat and KM values, μM^−1 s^−1 for this quantity
# T1 sequence (O15054 1141-1590 limits assumed): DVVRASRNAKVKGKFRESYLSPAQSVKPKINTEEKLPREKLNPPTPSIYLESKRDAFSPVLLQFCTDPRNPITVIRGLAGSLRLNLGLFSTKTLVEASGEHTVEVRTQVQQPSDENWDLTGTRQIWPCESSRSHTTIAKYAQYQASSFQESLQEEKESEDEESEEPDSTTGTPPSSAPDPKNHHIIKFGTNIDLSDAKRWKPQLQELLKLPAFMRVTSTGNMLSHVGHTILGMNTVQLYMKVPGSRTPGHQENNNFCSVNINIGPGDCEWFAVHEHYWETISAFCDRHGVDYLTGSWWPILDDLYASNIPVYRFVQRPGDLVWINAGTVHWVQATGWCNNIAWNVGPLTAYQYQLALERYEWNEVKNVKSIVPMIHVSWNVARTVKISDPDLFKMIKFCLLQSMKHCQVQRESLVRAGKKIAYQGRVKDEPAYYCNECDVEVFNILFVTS
Substance,observed arginine demethylation activity (KDM6B [1]),observed arginine demethylation activity (KDM3A),observed arginine demethylation activity (KDM4E [3]),observed arginine demethylation activity (KDM5C [4]),also measured
"A-Rme2a-TKQTARKSTGGKA [H3(1-15)R2me2a, 'natural' histone H3 peptide asymmetrically dimethylated at R2]",−,−,+,+,"kcat/KM, times lower than that for H3K4me3 (KDM5C [2]; KDM5C): 14 times; kcat (KDM5C [2]; KDM5C catalytic domain, apparent, preliminary, FDH/NAD+-coupled assay, 37 °C, mean±s.e.m., n=3): 12.0±0.7 × 10^−3 s^−1; Km (KDM5C [2]; KDM5C catalytic domain, apparent, preliminary, FDH/NAD+-coupled formaldehyde assay, 37 °C, 2OG 200 μM, Fe(II) 10 μM, ascorbate 100 μM, mean±s.e.m., n=3): 19 ± 1.9 µM; kcat/KM (KDM5C [2]; KDM5C, calculated from the average kcat and KM values, μM^−1 s^−1 for this quantity): 630.0 × 10^−6; demethylation, in words (KDM4E [3]; KDM4E catalytic domain 2 μM): relatively good RDM substrate; demethylation, in words (KDM5C [4]; KDM5C catalytic domain 2 μM): relatively good RDM substrate; kcat/KM (KDM4E [5]): 0.000114 µM⁻¹ s⁻¹; kcat (KDM4E [5]): 9.9±1.0 × 10^−3 s^−1; Km (KDM4E [5]): 86.9 ± 16.5 µM; kcat/KM (KDM4E [5]; [7]): 114.0 × 10^−6"
H3(14-34)K27me3: 21-residue recognized histone H3 N-methylated-lysine peptide substrate for KDM6B,,,,,"kcat (KDM6B [6]; KDM6B catalytic domain, apparent, preliminary, FDH/NAD+-coupled assay, 37 °C, mean±s.e.m., n=3): 11.7±0.1 × 10^−3 s^−1; Km (KDM6B [6]; KDM6B catalytic domain, apparent, preliminary, FDH/NAD+-coupled formaldehyde assay, 37 °C, 2OG 200 μM, Fe(II) 10 μM, ascorbate 100 μM, mean±s.e.m., n=3): 6.7 ± 0.6 µM; kcat/KM (KDM6B [6]; KDM6B, calculated from the average kcat and KM values): 1,750.0 × 10^−6"
"SG-Rme2a-GKGGKGLGKGGA [H4(1-15)R3me2a, 'natural' histone H4 residues 1-15 peptide asymmetrically dimethylated at R3]",−,−,+,+,kcat (KDM4E [5]): 2.1±0.1 × 10^−3 s^−1; Km (KDM4E [5]): 122 ± 10.1 µM; kcat/KM (KDM4E [5]; [7]): 17.7 × 10^−6
"SG-Rme-GKGGKGLGKGGAK [H4 (1–15) R3me, 'natural' histone H4 peptide monomethylated at R3]",−,−,−,−,

# Second part, led by results:
observed arginine demethylation activity (KDM6B [1]),observed arginine demethylation activity (KDM3A),observed arginine demethylation activity (KDM4E [3]),observed arginine demethylation activity (KDM5C [4]),Substance,also measured
−,−,+,−,"SG-Rme2s-GKGGKGLGKGGA [H4 (1–15) R3me2s, 'natural' histone H4 residues 1-15 peptide symmetrically dimethylated at R3]",
−,−,−,−,"STGGKAP-Rme2a-KQLATKA [H3 (10–24) R17me2a, 'natural' histone H3 peptide asymmetrically dimethylated at R17]",
−,−,−,−,"STGGKAP-Rme-KQLATKA [H3 (10–24) R17me, 'natural' histone H3 peptide monomethylated at R17]",
